In patent US8791132B2, “Compounds and methods for treatment of hypertension” (Medivation Technologies, Inc., priority 2011, dated 2014):
Several values for one entry are separate records, joined by “and”; a condition that tells them apart may be missing. Equal entries are not always repeated. Where two headings read alike, the source gives them in different places.

Assays:
[1] = target: T1, human recombinant adrenergic α2B receptor (Homo sapiens, UniProt P18089); assay: Radioligand binding, adrenergic α2B ([3H]Rauwolscine); details: for Ki: read-out: Ki α2B; for Percentage inhibition of ligand binding, Adrenergic α2B: repeat assays, each datapoint shown
T1 construct: expressed in transfected cells; host or cells: CHO-K1
T1 sequence (P18089 1-450): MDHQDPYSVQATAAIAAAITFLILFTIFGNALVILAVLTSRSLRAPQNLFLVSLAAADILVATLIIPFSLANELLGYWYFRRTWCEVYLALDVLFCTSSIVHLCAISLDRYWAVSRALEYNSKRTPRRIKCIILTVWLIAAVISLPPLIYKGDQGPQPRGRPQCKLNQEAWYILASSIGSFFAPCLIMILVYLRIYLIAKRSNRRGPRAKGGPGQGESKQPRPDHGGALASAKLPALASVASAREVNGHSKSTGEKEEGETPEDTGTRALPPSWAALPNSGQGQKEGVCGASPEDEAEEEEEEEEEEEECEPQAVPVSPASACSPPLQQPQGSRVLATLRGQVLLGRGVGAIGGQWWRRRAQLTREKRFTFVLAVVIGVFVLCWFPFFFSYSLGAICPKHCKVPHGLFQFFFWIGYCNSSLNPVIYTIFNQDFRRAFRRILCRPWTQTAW
Method in brief: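 Receptor expressed in CHO-K1 cells, assayed in 50 mM Tris-HCl pH 7.4 with 12.5 mM MgCl2, 1 mM EDTA and 0.2% BSA. Compounds were incubated with 2.5 nM [3H]Rauwolscine for 60 min at 25° C; 10 μM Prazosin defined non-specific binding. Filter counting gave percent inhibition of specific binding.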

[2] = target: T2, human recombinant adrenergic α2A receptor (Homo sapiens, UniProt P08913); assay: Radioligand binding, adrenergic α2A ([3H]MK-912); details: for Percentage inhibition of ligand binding, Adrenergic α2A (0.1 μM) / Percentage inhibition of ligand binding, Adrenergic α2A: 0.1 µM
T2 construct: expressed in transfected cells; host or cells: insect Sf9 cells
T2 sequence (P08913 1-465): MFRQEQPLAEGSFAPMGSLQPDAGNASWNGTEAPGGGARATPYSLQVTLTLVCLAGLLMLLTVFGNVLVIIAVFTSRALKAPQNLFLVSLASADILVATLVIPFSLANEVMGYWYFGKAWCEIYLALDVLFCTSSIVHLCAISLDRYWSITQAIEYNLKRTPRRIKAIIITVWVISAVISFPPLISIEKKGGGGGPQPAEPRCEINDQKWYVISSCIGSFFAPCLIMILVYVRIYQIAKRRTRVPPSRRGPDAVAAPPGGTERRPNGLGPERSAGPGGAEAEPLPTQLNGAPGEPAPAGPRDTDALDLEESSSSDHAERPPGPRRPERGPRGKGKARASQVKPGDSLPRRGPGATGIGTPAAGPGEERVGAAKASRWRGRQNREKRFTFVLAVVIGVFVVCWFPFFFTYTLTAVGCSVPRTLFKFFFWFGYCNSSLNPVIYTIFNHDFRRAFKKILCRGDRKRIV
Method in brief: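 Receptor expressed in insect Sf9 cells, assayed in 50 mM Tris-HCl pH 7.4 with 12.5 mM MgCl2 and 2 mM EDTA. Compounds incubated with 1 nM [3H]MK-912 for 60 min at 25 °C; nonspecific binding defined with 10 μM WB-4101. Filter-bound radioactivity counted; values are percent inhibition of specific binding.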

[3] = target: T3, rat adrenergic α1B receptor (Rattus norvegicus, UniProt P15823); assay: Radioligand binding, adrenergic α1B ([3H]Prazosin); details: for Percentage inhibition of ligand binding, Adrenergic α1B (0.1 μM) / Percentage inhibition of ligand binding, Adrenergic α1B: 0.1 µM
T3 construct: rat adrenergic α1B receptor obtained from Wistar Rat liver; from tissue; host or cells: Wistar rat liver
T3 sequence (P15823 1-515): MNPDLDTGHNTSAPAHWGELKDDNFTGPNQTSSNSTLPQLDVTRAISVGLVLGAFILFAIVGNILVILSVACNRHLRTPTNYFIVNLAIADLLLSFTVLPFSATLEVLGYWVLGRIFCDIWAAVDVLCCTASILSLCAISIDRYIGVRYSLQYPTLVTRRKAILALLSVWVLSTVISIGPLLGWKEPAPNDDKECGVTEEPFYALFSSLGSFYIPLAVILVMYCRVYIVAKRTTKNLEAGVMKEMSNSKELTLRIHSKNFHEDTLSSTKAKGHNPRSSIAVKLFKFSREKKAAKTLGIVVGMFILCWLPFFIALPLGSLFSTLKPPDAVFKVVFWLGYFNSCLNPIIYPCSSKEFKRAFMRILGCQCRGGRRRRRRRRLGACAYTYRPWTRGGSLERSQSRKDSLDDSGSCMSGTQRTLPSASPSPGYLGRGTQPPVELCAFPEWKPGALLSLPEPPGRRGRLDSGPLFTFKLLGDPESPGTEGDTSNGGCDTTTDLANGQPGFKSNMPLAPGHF
Method in brief: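 Incubation ran 60 min at 25 °C in Tris-HCl buffer (50 mM, pH 7.4, 0.5 mM EDTA) with Wistar rat liver α1B receptor. 10 μM phentolamine set non-specific binding.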

[4] = compound at 0.03 μM, [3H]Rauwolscine, repeat datapoints each shown, 0.03 µM
[5] = compound at 0.1 μM, [3H]MK-912, repeat datapoints each shown
[6] = compound at 0.1 μM, [3H]Prazosin, repeat datapoints each shown
[7] = read-out: Percentage inhibition of ligand binding, Adrenergic α2B (0.03 μM), compound at 0.03 μM, [3H]Rauwolscine, repeat datapoints each shown
[8] = read-out: Percentage inhibition of ligand binding, Adrenergic α2A (0.1 μM), compound at 0.1 μM, [3H]MK-912, repeat datapoints each shown
[9] = read-out: Percentage inhibition of ligand binding, Adrenergic α1B (0.1 μM), compound at 0.1 μM, [3H]Prazosin, repeat datapoints each shown
[10] = compound at 0.03 μM, [3H]Rauwolscine, 0.03 µM
[11] = compound at 0.1 μM, [3H]Rauwolscine, 0.1 µM
[12] = compound at 0.1 μM, [3H]Prazosin, repeat assays, each datapoint shown
[13] = compound at 0.1 μM, [3H]MK-912, repeat assays, each datapoint shown
[14] = compound at 0.1 μM, [3H]Prazosin, repeat assays, each datapoint shown, read-out: Percentage inhibition of ligand binding, Adrenergic α1B

Cc1ccc2c(c1)c1c(n2CC(O)c2ccc(C#N)nc2)CCN(C)C1 (single isomer, unassigned) [140a, 5-[2-(2,8-dimethyl-1,2,3,4-tetrahydro-pyrido[4,3-b]indol-5-yl)-1-hydroxy-ethyl]-pyridine-2-carbonitrile]
Percentage inhibition of ligand binding, Adrenergic α2B (0.03 μM) [1, 4]: 76%
Percentage inhibition of ligand binding, Adrenergic α2A (0.1 μM) [2, 5]: 11%
Percentage inhibition of ligand binding, Adrenergic α1B (0.1 μM) [3, 6]: 59%

Cc1ccc2c(c1)c1c(n2CC(CCN(C)C)c2ccncc2)CCN(C)C1 (stereo not drawn) [II-232, [4-(2,8-dimethyl-1,2,3,4-tetrahydro-pyrido[4,3-b]indol-5-yl)-3-pyridin-4-yl-butyl]-dimethyl-amine]
inhibition at 0.03 µM [1, 7]: 28%
inhibition at 0.1 µM [2, 8]: 3%
inhibition at 0.1 µM [3, 9]: 3%

Cc1ccc2c(c1)c1c(n2CC(O)c2ccncc2C)CCN(C)C1 (single isomer, unassigned) [133b]
Percentage inhibition of ligand binding, Adrenergic α2B (0.03 μM) [1, 4]: 88%
Ki [1]: 2.42 nM
inhibition at 0.03 µM [1, 7]: 87%
inhibition at 0.1 µM ([1]; read-out: Percentage inhibition of ligand binding, Adrenergic α2B (0.1 μM), compound at 0.1 μM, [3H]Rauwolscine, repeat datapoints each shown): 94%
Ki [2]: 59.5 nM
Percentage inhibition of ligand binding, Adrenergic α2A (0.1 μM) [2, 5]: 39%
inhibition at 0.03 µM ([2]; read-out: Percentage inhibition of ligand binding, Adrenergic α2A (0.03 μM), compound at 0.03 μM, [3H]MK-912, repeat datapoints each shown): 27%
inhibition at 0.1 µM [2, 8]: 34%
Percentage inhibition of ligand binding, Adrenergic α1B (0.1 μM) [3, 6]: 42%
inhibition at 0.03 µM ([3]; read-out: Percentage inhibition of ligand binding, Adrenergic α1B (0.03 μM), compound at 0.03 μM, [3H]Prazosin, repeat datapoints each shown): 16%
inhibition at 0.1 µM [3, 9]: 40%

Cc1ccc2c(c1)c1c(n2CC(N)c2ccncc2)CCN(C)C1 (single isomer, unassigned) [27b, 2-(1,2,3,4-tetrahydro-2,8-dimethylpyrido[4,3-b]indol-5-yl)-1-(pyridin-4-yl)ethanamine]
Percentage inhibition of ligand binding, Adrenergic α2B [1, 10]: 30% and 36%
Percentage inhibition of ligand binding, Adrenergic α2B [1, 11]: 48%
Ki [1]: 43.4 nM
Ki [2]: 3710 nM
Percentage inhibition of ligand binding, Adrenergic α1B [3, 12]: 6% and 16%

Cc1ccc2c(c1)c1c(n2CC(O)c2ccncc2)CCN2CCCCC12 (single isomer, unassigned) [47b]
Percentage inhibition of ligand binding, Adrenergic α2B [1, 10]: 119%
Percentage inhibition of ligand binding, Adrenergic α2A [2, 13]: 41%
Percentage inhibition of ligand binding, Adrenergic α1B [3, 12]: 70%

OC(Cn1c2c(c3cccnc31)CN1CCCC1C2)c1ccncc1 (single isomer, unassigned) [37b]
Percentage inhibition of ligand binding, Adrenergic α2B [1, 10]: −3%
Percentage inhibition of ligand binding, Adrenergic α2A [2, 13]: −20%
Percentage inhibition of ligand binding, Adrenergic α1B [3, 12]: −10%

Cc1cnc2c(c1)c1c(n2CC(C)(O)c2ccc(C(F)(F)F)nc2)CCN(C)C1 (single isomer, unassigned) [II-108a]
Percentage inhibition of ligand binding, Adrenergic α2B (0.03 μM) [1, 4]: 27%
Percentage inhibition of ligand binding, Adrenergic α2A (0.1 μM) [2, 5]: −2%
Percentage inhibition of ligand binding, Adrenergic α1B (0.1 μM) [3, 6]: 13%

Cc1ccc2c(c1)c1c(n2CC(C)(O)c2cccnc2)CCN(C)C1 (single isomer, unassigned) [5a, 1-(1,2,3,4-tetrahydro-2,8-dimethylpyrido[4,3-b]indol-5-yl)-2-(pyridin-3-yl)propan-2-ol]
Percentage inhibition of ligand binding, Adrenergic α2B [1, 10]: 29% and 38%
Percentage inhibition of ligand binding, Adrenergic α2B [1, 11]: 57%
Ki [1]: 35 nM
Percentage inhibition of ligand binding, Adrenergic α2A [2, 13]: 0%
inhibition at 0.1 µM [3, 14]: 18%

Cc1ccc2c(c1)c1c(n2CC(CC(N)=O)c2ccncc2)CCN(C)C1 (stereo not drawn) [II-229, 4-(2,8-dimethyl-1,2,3,4-tetrahydro-pyrido[4,3-b]indol-5-yl)-3-pyridin-4-yl-butyramide]
inhibition at 0.03 µM [1, 7]: 12%
inhibition at 0.1 µM [2, 8]: 6%
inhibition at 0.1 µM [3, 9]: 3%

Cc1cnc2c(c1)c1c(n2CC(N)c2ccc(C#N)cc2)CCNC1 (single isomer, unassigned) [160b]
Percentage inhibition of ligand binding, Adrenergic α2B (0.03 μM) [1, 4]: 41%
Percentage inhibition of ligand binding, Adrenergic α2A (0.1 μM) [2, 5]: 5%
Percentage inhibition of ligand binding, Adrenergic α1B (0.1 μM) [3, 6]: 65%

Cc1ccc2c(c1)c1c(n2CC(O)c2ccncc2)CC2CCCCN2C1 (racemic) [75b]
Percentage inhibition of ligand binding, Adrenergic α2B [1, 10]: 43%
Percentage inhibition of ligand binding, Adrenergic α2A [2, 13]: 5%
Percentage inhibition of ligand binding, Adrenergic α1B [3, 12]: 16%

Cc1cc2c3c(n(CC(C)(O)c4cccnc4)c2cc1Cl)CCN(C)C3 (single isomer, unassigned) [II-123a, 1-(7-chloro-2,8-dimethyl-3,4-dihydro-1H-pyrido[4,3-b]indol-5(2H)-yl)-2-(pyridin-3-yl)propan-2-ol]
Percentage inhibition of ligand binding, Adrenergic α2B (0.03 μM) [1, 4]: 62%
Percentage inhibition of ligand binding, Adrenergic α2A (0.1 μM) [2, 5]: 16%
inhibition at 0.1 µM [3, 9]: 41%

Cc1ccc2c(c1)c1c(n2CC(O)c2ccncc2)CCN(CCCO)C1 (stereo not drawn) [II-75, 3-(3,4-dihydro-5-(2-hydroxy-2-(pyridin-4-yl)ethyl)-8-methyl-1H-pyrido[4,3-b]indol-2(5H)-yl)propan-1-ol]
inhibition at 0.03 µM ([1]; 0.03 μM compound, read-out: Percentage inhibition of ligand binding, Adrenergic α2B): 35%
inhibition at 0.1 µM ([2]; 0.1 μM compound, read-out: Percentage inhibition of ligand binding, Adrenergic α2A): 15%
inhibition at 0.1 µM ([3]; 0.1 μM compound, read-out: Percentage inhibition of ligand binding, Adrenergic α1B): 8%

Cc1ccc2c(c1)c1c(n2CC(C)(O)c2cccnc2)CCNC1 (single isomer, unassigned) [24a]
Percentage inhibition of ligand binding, Adrenergic α2B [1, 10]: 63%
inhibition at 0.1 µM ([2]; compound at 0.1 μM, [3H]MK-912, repeat assays, each datapoint shown, read-out: Percentage inhibition of ligand binding, Adrenergic α2A): 8%
inhibition at 0.1 µM [3, 14]: 8%
